Experimental data as given in patent US20220056019A1, “FARNESOID X RECEPTOR AGONISTS AND USES THEREOF” (Metacrine, Inc., priority 2018, published 2022).

Molecular target: T1, hFXR (Homo sapiens, UniProt Q96RI1)
T1 construct: expressed in transfected cells; host or cells: CV-1 cells
T1 sequence (Q96RI1 1-486): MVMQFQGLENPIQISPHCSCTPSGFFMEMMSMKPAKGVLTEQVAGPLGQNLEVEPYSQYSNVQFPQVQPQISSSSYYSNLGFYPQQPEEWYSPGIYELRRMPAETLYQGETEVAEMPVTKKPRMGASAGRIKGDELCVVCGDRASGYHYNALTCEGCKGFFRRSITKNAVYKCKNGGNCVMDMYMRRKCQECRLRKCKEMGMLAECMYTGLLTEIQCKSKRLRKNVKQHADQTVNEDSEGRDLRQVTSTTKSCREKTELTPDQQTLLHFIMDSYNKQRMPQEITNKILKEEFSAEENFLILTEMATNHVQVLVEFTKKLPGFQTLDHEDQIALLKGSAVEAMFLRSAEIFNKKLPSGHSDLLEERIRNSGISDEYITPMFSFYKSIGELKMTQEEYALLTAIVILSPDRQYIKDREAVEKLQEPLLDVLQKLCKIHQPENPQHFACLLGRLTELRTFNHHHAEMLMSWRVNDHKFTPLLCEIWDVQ
T1 sequence (P19793 1-462 partner): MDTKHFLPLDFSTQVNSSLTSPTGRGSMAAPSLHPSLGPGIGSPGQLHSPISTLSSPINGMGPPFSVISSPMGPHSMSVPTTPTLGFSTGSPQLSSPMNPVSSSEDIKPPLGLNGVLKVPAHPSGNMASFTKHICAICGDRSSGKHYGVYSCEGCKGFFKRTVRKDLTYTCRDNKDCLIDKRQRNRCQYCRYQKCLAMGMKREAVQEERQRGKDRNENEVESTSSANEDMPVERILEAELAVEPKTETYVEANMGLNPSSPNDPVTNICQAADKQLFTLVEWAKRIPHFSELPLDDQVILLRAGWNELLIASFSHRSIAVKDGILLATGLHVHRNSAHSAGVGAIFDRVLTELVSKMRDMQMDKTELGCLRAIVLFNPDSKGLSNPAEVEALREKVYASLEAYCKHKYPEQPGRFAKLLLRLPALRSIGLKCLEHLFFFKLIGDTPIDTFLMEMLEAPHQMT
Experiment: In Vitro FXR Assay (TK): TK-ECRE-luc reporter in transfected CV-1 cells
Type: cell-based
Details: 18 hrs incubation, luminescence
Procedure, shortened: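 CV-1, DMEM/10% charcoal-stripped FBS, 37 °C 5% CO2. Transfection O/N: hFXR + hRXR + TK-ECRE-luc + pCMX-YFP. Cpds (DMSO serial dil.) 18 h; lyse, read luminescence.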

EC50, ≤ 50 nM:
COc1ccc(C23CCC(CN(c4cc(-c5cnn(C6CCCC6)c5)ccn4)C(=O)[C@H]4CC[C@H](OC(=O)N5CC(O)C5)CC4)(CC2)CC3)cc1C [Compound 23.07, 4-((4-(1-Cyclopentyl-1H-pyrazol-4-yl)pyridin-2-yl)((4-(4-methoxy-3-methylphenyl)bicyclo[2.2.2]oc-tan-1-yl)methyl)carbamoyl)(trans-cyclohexyl) 3-hydroxy-azetidine-1-carboxylate]
COc1ccc([C@H]2CC[C@H](CN(c3cc(-c4cc(C(C)C)on4)ccn3)C(=O)[C@H]3CC[C@H](OC(=O)N4CC(O)C4)CC3)CC2)cc1C [Compound 2.56, trans-4-((4-(5-Isopropylisoxazol-3-yl)pyridin-2-yl)(((trans)-4-(4-methoxy-3-methylphenyl)cyclohexyl)methyl)carbamoyl)cyclohexyl 3-hydroxyazetidine-1-carboxylate]
COc1ccc(C23CCC(CN(c4cc(-n5ccc(C(C)C)n5)ccn4)C(=O)[C@H]4CC[C@H](OC(=O)N5CC(O)C5)CC4)(CC2)CC3)cc1C [Compound 23.15, 4-((4-(3-Isopropyl-1H-pyrazol-1-yl)pyridin-2-yl)((4-(4-methoxy-3-methylphenyl)bicyclo[2.2.2]octan-1-yl)methyl)carbamoyl)cyclo-hexyl trans-3-hydroxyazetidine-1-carboxylate]
COc1ccc([C@H]2CC[C@H](CN(c3cc(-c4coc(C5CC5)n4)ccn3)C(=O)[C@H]3CC[C@H](OC(=O)NCC(C)(C)O)CC3)CC2)cc1C [Compound 2.02, trans-4-((4-(2-Cyclopropyloxazol-4-yl)pyridin-2-yl)((trans-4-(4-methoxy-3-methylphenyl)cyclohexyl)methyl)carbamoyl) cyclohexyl(2-hydroxy-2-methylpropyl)carbamate]
COc1ccc(C23CCC(CN(c4cc(-c5cnn(C(C)C)c5)ccc4F)C(=O)[C@H]4CC[C@H](OC(=O)N5CC(O)C5)CC4)(CC2)CC3)cc1C [Compound 25.03, 4-((2-Fluoro-5-(1-isopropyl-1H-pyrazol-4-yl)phenyl)((4-(4-methoxy-3-methylphenyl)bicyclo[2.2.2]octan-1-yl)methyl)carbamoyl)cyclohexyl trans-3-hydroxyazetidine-1-carboxylate]
COc1ccc(C23CCC(CN(c4cc(-c5cnn(C(C)C)c5)ccn4)C(=O)[C@H]4CC[C@H](OC(=O)NC5COC5)CC4)(CC2)CC3)cc1C [Compound 4.13, 4-((4-(1-Isopropyl-1H-pyrazol-4-yl)pyridin-2-yl)((4-(4-methoxy-3-methylphenyl)bicyclo [2.2.2]octan-1-yl)methyl)carbamoyl)cyclohexyl trans-oxetan-3-ylcarbamate]
COc1ccc(C23CCC(CN(c4cc(-c5cnc(C(C)C)s5)ccn4)C(=O)[C@H]4CC[C@H](OC(=O)N5CC(OCCO)C5)CC4)(CC2)CC3)cc1C [Compound 4.38, 4-((4-(2-Isopropylthiazol-5-yl)pyridin-2-yl)((4-(4-methoxy-3-methylphenyl)bicyclo[2.2.2]octan-1-yl)methyl)carbamoyl) (trans-cyclohexyl) 3-(2-hydroxyethoxy)azetidine-1-carboxylate]
COc1ccc(C23CCC(CN(c4cc(-c5cnn(C(C)C)c5)ccn4)C(=O)[C@H]4CC[C@H](OC(=O)N5CCOCC5)CC4)(CC2)CC3)cc1C [Compound 4.14, 4-((4-(1-Isopropyl-1H-pyrazol-4-yl)pyridin-2-yl)((4-(4-methoxy-3-methylphenyl)bicyclo [2.2.2]octan-1-yl)methyl)carbamoyl)cyclohexyl morpholine-trans-4-carboxylate]
COc1ccc(C23CCC(CN(c4cc(-c5ccn(C(C)C)n5)ccn4)C(=O)[C@H]4CC[C@H](OC(=O)N5CC(O)C5)CC4)(CC2)CC3)cc1C [Compound 23.16, 4-((4-(1-Isopropyl-1H-pyrazol-3-yl)pyridin-2-yl)((4-(4-methoxy-3-methylphenyl)bicyclo[2.2.2]octan-1-yl)methyl)carbamoyl)cyclo-hexyl trans-3-hydroxyazetidine-1-carboxylate]
COc1ccc(C23CCC(CN(c4cccc(-c5cnn(C(C)C)c5)c4)C(=O)[C@H]4CC[C@H](OC(=O)N5CC(O)C5)CC4)(CC2)CC3)cc1C [Compound 25.02, 4-((3-(1-Isopropyl-1H-pyrazol-4-yl)phenyl)((4-(4-methoxy-3-methylphenyl)bicyclo[2.2.2]octan-1-yl)methyl)carbamoyl)cyclohexyl trans-3-hydroxyazetidine-1-carboxylate]
COc1ccc(C23CCC(CN(c4cc(-c5cnn(C6CCSCC6)c5)ccn4)C(=O)[C@H]4CC[C@H](OC(=O)N5CC(O)C5)CC4)(CC2)CC3)cc1C [Compound 26.21, 4-(((4-(4-Methoxy-3-methylphenyl)bicyclo[2.2.2]octan-1-yl)methyl)(4-(1-(tetrahydro-2H-thiopyran-4-yl)-1H-pyrazol-4-yl)pyridin-2-yl)carbamoyl)cyclohexyl trans-3-hydroxyazetidine-1-carboxylate]
COc1ccc(C23CCC(CN(c4cccc(-c5cnn(C6(C)CCC6)c5)n4)C(=O)[C@H]4CC[C@H](OC(=O)N5CC(O)C5)CC4)(CC2)CC3)cc1C [Compound 25.24, 4-(((4-(4-Methoxy-3-methylphenyl)bicyclo[2.2.2]octan-1-yl)methyl)(6-(1-(1-methylcyclobutyl)-1H-pyrazol-4-y)pyridin-2-yl)carbamoyl)cyclohexyl trans-3-hydroxyazetidine-1-carboxylate]
COc1ccc([C@H]2CC[C@H](CN(c3cc(-c4cnn(C(C)C)c4)ccn3)C(=O)[C@H]3CC[C@H](OC(=O)NC(CF)CF)CC3)CC2)cc1C [Compound 2.35, trans-4-((4-(1-Isopropyl-1H-pyrazol-4-yl)pyridin-2-yl)(((trans)-4-(4-methoxy-3-methylphenyl)cyclohexyl)methyl)carbamoyl) cyclohexyl(1,3-difluoropropan-2-yl) carbamate]
COc1ccc(C23CCC(CN(c4cc(-c5cnc(C(C)C)s5)ccn4)C(=O)[C@H]4CC[C@H](OC(=O)N5CC(O)C5)CC4)(CC2)CC3)cc1C [Compound 4.21, 4-((4-(2-Isopropylthiazol-5-yl)pyridin-2-yl)((4-(4-methoxy-3-methylphenyl)bicyclo[2.2.2]octan-1-yl)methyl)carbamoyl) cyclohexyl 3-hydroxyazetidine-trans-1-carboxylate]
COc1ccc([C@H]2CC[C@H](CN(c3cc(-c4cnn(C(C)C)c4)ccn3)C(=O)[C@H]3CC[C@H](OC(=O)NCC(C)(F)F)CC3)CC2)cc1C [Compound 2.31, trans-4-((4-(1-Isopropyl-1H-pyrazol-4-yl)pyridin-2-yl)(((trans)-4-(4-methoxy-3-methylphenyl)cyclohexyl)methyl)carbamoyl) cyclohexyl(2,2-difluoropropyl)carbamate]
COc1ccc([C@H]2CC[C@H](CN(c3cccc(-c4cnn(C(C)C)c4)c3)C(=O)[C@H]3CC[C@H](NC(=O)C4CC(=O)C4)CC3)CC2)cc1C [Compound 14.01, trans-N-(3-(1-Isopropyl-1H-pyrazol-4-yl)phenyl)-N-((trans-4-(4-methoxy-3-methylphenyl)cyclohexyl)methyl)-4-(3-oxocyclobutanecarboxamido)cyclo-hexanecarboxamide]
COc1ccc([C@H]2CC[C@H](CN(c3cc(-c4coc(C(C)C)n4)ccn3)C(=O)[C@H]3CC[C@H](OC(=O)N4CCN(C)CC4)CC3)CC2)cc1C [Compound 2.25, trans-4-((4-(2-Isopropyloxazol-4-yl)pyridin-2-yl)(((trans)-4-(4-methoxy-3-methylphenyl)cyclohexyl)methyl)carbamoyl)cyclohexyl 4-methylpiperazine-1-carboxylate]
COc1ccc(C23CCC(CN(c4cc(-c5cnn(C(C)C)c5)ccn4)C(=O)[C@H]4CC[C@H](NC(=O)OCCO)CC4)(CC2)CC3)cc1C [Compound 7, (trans)-2-Hydroxyethyl (4-((4-(1-isopropyl-1H-pyrazol-4-yl)pyridine-2-yl)((4-(4-methoxy-3-methylphenyl)bicyclo[2.2.2]octan-1-yl)methyl)carbamoyl)cyclohexyl)carbamate]
COc1ccc([C@H]2CC[C@H](CN(c3cccc(-c4coc(C5CC5)n4)c3)C(=O)[C@H]3CC[C@H](C(=O)OC)CC3)CC2)nc1C [Compound 18, trans-Methyl 4-((3-(2-cyclopropyloxazol-4-yl)phenyl)((trans-4-(5-methoxy-6-methylpyridin-2-yl)cyclohexyl)methyl)carbamoyl)cyclo-hexanecarboxylate]
